Test results: publication PMC11530689, “Anti colorectal cancer activity and in silico studies of novel pyridine nortopsentin analog as cyclin dependent kinase 6 inhibitor” (Scientific Reports, 2024)

What was measured:
Assay in all cases: NCI 60 cell line screen
Format in all cases: cell-based
PC-3 = details: PC-3, Prostate Cancer; single concentration 10^−5 M
Experimental: (§1) The cytotoxic activity of nortopsintin analogs (4a-4j) was determined by the national cancer institute (NCI, Bethesda, Maryland, USA) against 60 different cancer cell lines at a single concentration of (10^-5 M). For the determination of IC50 value, we used MTT assay kit (Sigma) according to the manufacturer's protocol. HCT-116 cells were seeded into a 96-well plate at a concentration of 20,000 cells/well. After 24 h, the media was aspirated and replaced with serum-free media containing serial dilutions of the 4i compound. […] The percentage of cytotoxicity was calculated using the following equation: % Cytotoxicity = [1 - ([…])] × 100.

NCI/ADR-RES = details: Ovarian Cancer, single concentration 10^−5 M
Experimental: as §1

NCI-H522 = details: NCI-H522, Non-Small Cell Lung Cancer; single concentration 10^−5 M
Experimental: as §1

MDA-MB-435 = details: MDA-MB-435, Melanoma; single concentration 10^−5 M
Experimental: as §1

SK-MEL-5 = details: SK-MEL-5, Melanoma; single concentration 10^−5 M
Experimental: as §1

TK-10 = details: TK-10, Renal Cancer; single concentration 10^−5 M
Experimental: as §1

SW-620 = details: SW-620, Colon Cancer; single concentration 10^−5 M
Experimental: as §1

SK-MEL-28 = details: SK-MEL-28, Melanoma; single concentration 10^−5 M
Experimental: as §1

MDA-MB-231/ATCC = details: Breast Cancer, single concentration 10^−5 M
Experimental: as §1

SK-OV-3 = details: SK-OV-3, Ovarian Cancer; single concentration 10^−5 M
Experimental: as §1

BT-549 = details: BT-549, Breast Cancer; single concentration 10^−5 M
Experimental: as §1

SF-268 = details: SF-268, CNS Cancer; single concentration 10^−5 M
Experimental: as §1

MALME-3M = details: Melanoma, single concentration 10^−5 M
Experimental: as §1

HCC-2998 = details: HCC-2998, Colon Cancer; single concentration 10^−5 M
Experimental: as §1

KM12 = details: KM12, Colon Cancer; single concentration 10^−5 M
Experimental: as §1

NCI-H23 = details: NCI-H23, Non-Small Cell Lung Cancer; single concentration 10^−5 M
Experimental: as §1

SF-539 = details: SF-539, CNS Cancer; single concentration 10^−5 M
Experimental: as §1

OVCAR-5 = details: OVCAR-5, Ovarian Cancer; single concentration 10^−5 M
Experimental: as §1

HOP-92 = details: HOP-92, Non-Small Cell Lung Cancer; single concentration 10^−5 M
Experimental: as §1

A498 = details: A498, Renal Cancer; single concentration 10^−5 M
Experimental: as §1

NCI-H226 = details: NCI-H226, Non-Small Cell Lung Cancer; single concentration 10^−5 M
Experimental: as §1

HT29 = details: HT29, Colon Cancer; single concentration 10^−5 M
Experimental: as §1

K-562 = details: K-562, Leukemia; single concentration 10^−5 M
Experimental: as §1

MCF7 = details: MCF7, Breast Cancer; single concentration 10^−5 M
Experimental: as §1

HL-60 (TB) = details: Leukemia, single concentration 10^−5 M
Experimental: as §1

DU-145 = details: DU-145, Prostate Cancer; single concentration 10^−5 M
Experimental: as §1

M14 = details: M14, Melanoma; single concentration 10^−5 M
Experimental: as §1

LOX IMVI = details: Melanoma, single concentration 10^−5 M
Experimental: as §1

SK-MEL-2 = details: SK-MEL-2, Melanoma; single concentration 10^−5 M
Experimental: as §1

HS 578T = details: Breast Cancer, single concentration 10^−5 M
Experimental: as §1

CCRF-CEM = details: Leukemia, single concentration 10^−5 M
Experimental: as §1

OVCAR-3 = details: OVCAR-3, Ovarian Cancer; single concentration 10^−5 M
Experimental: as §1

SF-295 = details: SF-295, CNS Cancer; single concentration 10^−5 M
Experimental: as §1

ACHN = details: Renal Cancer, single concentration 10^−5 M
Experimental: as §1

IGROV1 = details: IGROV1, Ovarian Cancer; single concentration 10^−5 M
Experimental: as §1

UO-31 = details: UO-31, Renal Cancer; single concentration 10^−5 M
Experimental: as §1

NCI-H322M = details: Non-Small Cell Lung Cancer, single concentration 10^−5 M
Experimental: as §1

SMILES	Growth % (PC-3) [%]	Growth % (NCI/ADR-RES) [%]	Growth % (NCI-H522) [%]	Growth % (MDA-MB-435) [%]	Growth % (SK-MEL-5) [%]	Growth % (TK-10) [%]	Growth % (SW-620) [%]	Growth % (SK-MEL-28) [%]	Growth % (MDA-MB-231/ATCC) [%]	Growth % (SK-OV-3) [%]	Growth % (BT-549) [%]	Growth % (SF-268) [%]	Growth % (MALME-3M) [%]	Growth % (HCC-2998) [%]	Growth % (KM12) [%]	Growth % (NCI-H23) [%]	Growth % (SF-539) [%]	Growth % (OVCAR-5) [%]	Growth % (HOP-92) [%]	Growth % (A498) [%]	also measured
CN(C)c1ccc(-c2cc(-c3c[nH]c4ccccc34)nc(-c3c[nH]c4ccccc34)c2C#N)cc1 [4i]	89.56	90.91	93.15	81.62	96.50	107.28	46.63	101.89	99.81	94.88	103.60	96.47	97.41	88.23	58.37	88.40	75.80	102.79	104.62	98.45	Growth % (NCI-H226): 79.62%; Growth % (HT29): 63.02%; Growth % (K-562): 39.74%; Growth % (MCF7): 49.30%; Growth % (HL-60 (TB)): 85.35%; Growth % (DU-145): 99.65%; Growth % (M14): 97.66%; Growth % (LOX IMVI): 70.02%; Growth % (SK-MEL-2): 102.08%; Growth % (HS 578T): 104.13%; Growth % (CCRF-CEM): 78.55%; Growth % (OVCAR-3): 91.03%; Growth % (SF-295): 79.83%; Growth % (ACHN): 98.60%; Growth % (IGROV1): 74.28%; Growth % (UO-31): 72.88%; Growth % (NCI-H322M): 92.92%
COc1cc(OC)cc(-c2cc(-c3c[nH]c4ccccc34)nc(-c3c[nH]c4ccccc34)c2C#N)c1 [4f]	93.60	97.14	92.06	99.41	98.48	124.45	102.51	100.94	100.79	99.89	103.60	99.97	108.42	112.62	98.72	103.68	94.25	108.89	95.02	96.67	Growth % (NCI-H226): 87.28%; Growth % (HT29): 108.12%; Growth % (K-562): 93.22%; Growth % (MCF7): 90.74%; Growth % (HL-60 (TB)): 101.74%; Growth % (DU-145): 101.42%; Growth % (M14): 94.97%; Growth % (LOX IMVI): 82.70%; Growth % (SK-MEL-2): 88.37%; Growth % (HS 578T): 102.35%; Growth % (OVCAR-3): 99.19%; Growth % (SF-295): 101.07%; Growth % (ACHN): 97.24%; Growth % (IGROV1): 93.71%; Growth % (UO-31): 71.31%; Growth % (NCI-H322M): 104.89%
N#Cc1c(-c2ccc(O)cc2)cc(-c2c[nH]c3ccccc23)nc1-c1c[nH]c2ccccc12 [4j]	98.38	102.41	85.59	90.35	84.85	149.07	108.39	76.45	92.33	96.54	96.81	105.02	114.20	126.05	96.89	89.30	66.62	108.44	125.42	110.66	Growth % (NCI-H226): 86.10%; Growth % (HT29): 111.48%; Growth % (K-562): 67.98%; Growth % (MCF7): 87.55%; Growth % (HL-60 (TB)): 107.76%; Growth % (DU-145): 104.31%; Growth % (M14): 100.26%; Growth % (LOX IMVI): 62.75%; Growth % (SK-MEL-2): 100.11%; Growth % (HS 578T): 89.18%; Growth % (CCRF-CEM): 76.51%; Growth % (OVCAR-3): 92.93%; Growth % (SF-295): 87.00%; Growth % (ACHN): 72.15%; Growth % (IGROV1): 76.43%; Growth % (UO-31): 78.37%; Growth % (NCI-H322M): 101.04%
N#Cc1c(-c2ccccc2)cc(-c2c[nH]c3ccccc23)nc1-c1c[nH]c2ccccc12 [4a]	92.44	98.30	97.10	102.63	99.18	123.79	101.78	109.51	92.64	93.31	94.69	96.15	99.77	93.57	102.51	95.64	98.60	103.05	92.10	98.67	Growth % (NCI-H226): 89.89%; Growth % (HT29): 102.69%; Growth % (K-562): 100.60%; Growth % (MCF7): 94.97%; Growth % (HL-60 (TB)): 103.72%; Growth % (DU-145): 108.34%; Growth % (M14): 100.81%; Growth % (LOX IMVI): 100.06%; Growth % (SK-MEL-2): 97.65%; Growth % (HS 578T): 93.45%; Growth % (CCRF-CEM): 102.65%; Growth % (OVCAR-3): 109.77%; Growth % (SF-295): 96.36%; Growth % (ACHN): 96.37%; Growth % (IGROV1): 82.09%; Growth % (UO-31): 68.28%; Growth % (NCI-H322M): 105.41%
N#Cc1c(-c2ccc(F)cc2)cc(-c2c[nH]c3ccccc23)nc1-c1c[nH]c2ccccc12 [4d]	103.05	103.38	97.04	107.27	100.33	127.59	106.63	106.51	102.47	96.90	108.84	101.12	101.85	109.40	100.66	100.43	100.06	109.33	93.44	89.44	Growth % (NCI-H226): 94.04%; Growth % (HT29): 110.19%; Growth % (K-562): 104.54%; Growth % (MCF7): 89.33%; Growth % (HL-60 (TB)): 98.89%; Growth % (DU-145): 106.26%; Growth % (M14): 97.40%; Growth % (LOX IMVI): 107.36%; Growth % (SK-MEL-2): 96.13%; Growth % (HS 578T): 95.18%; Growth % (CCRF-CEM): 102.09%; Growth % (OVCAR-3): 102.48%; Growth % (SF-295): 102.68%; Growth % (ACHN): 101.89%; Growth % (IGROV1): 102.10%; Growth % (UO-31): 84.72%; Growth % (NCI-H322M): 106.25%
